# Source: patent publication US20130315825A1, “TRICYCLIC HETEROAROMATIC COMPOUNDS AS ALPHA-SYNUCLEIN LIGANDS” (Washington University, priority 2012, published 2013)
# Read-outs that look alike come from different tables or passages of the source.
# Columns and labels:
# Aβ plaques in AD brain = details: cited from earlier work; for Kd: binding to Aβ plaques
# [1] = target: Human PD brain homogenate (Homo sapiens, UniProt P37840); details: [125I]SIL23 competition, human PD brain homogenate (insoluble fraction); 95% confidence intervals in parentheses
# Protocol: Samples were used from both male and female subjects.
# (§1) Reactions were incubated at 37° C. for 2 h before quantifying bound radioligand as described above for the saturation binding assay. All data points were performed in triplicate. Data were analyzed using Graphpad Prism software (version 4.0) to obtain EC50 values by fitting the data to the equation Y=bottom+(top-bottom)/(1+10^(x-10gEC^50^)).
# α-synuclein fibrils [2] = target: T1, α-synuclein fibrils (Homo sapiens, UniProt P37840); details: [125I]SIL23 competition, 95% confidence intervals in parentheses
# Protocol: (§2) The prepared fibril mixture was centrifuged at 15,000×g for 15 min to prepare fibrils for binding assays.
# as §1
# Data points represent mean+/−s.d. (n=3).
# Aβ1-42 fibrils [3] = target: T2, Aβ1-42 fibrils (Homo sapiens, UniProt P05067); assay: [125I]SIL23 competitive binding assay, Aβ1-42 fibrils; details: [125I]SIL23 competition, 95% confidence intervals in parentheses
# T2 construct: Synthetic Aβ1-42 peptide (1 mg) (Bachem, Torrance, Calif.); purchased Bachem, Torrance, Calif; host or cells: synthetic peptide
# T2 sequence (P05067 672-713 limits assumed): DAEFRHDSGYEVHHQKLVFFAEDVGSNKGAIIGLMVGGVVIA
# α-synuclein fibrils [4] = target: T1, α-synuclein fibrils; assay: ThT competitive binding assay with α-synuclein fibrils
# [5] = Ex vivo biodistribution in Sprague-Dawley rats; details: for brain uptake: male SD rats (n=4);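 as to all read-outs here: four rats in each time-point group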
# Protocol: Group of rats (n=4) were used for each time point. […] The whole brain was quickly removed and dissected into segments consisting of brain stem, thalamus, striatum, hippocampus, cortex, and cerebellum. The remainder of the brain was also collected to determine total brain uptake. […] Tissues were weighed, and the % I.D./g for each tissue was calculated.
# tau fibrils = target: T3, tau fibrils (Homo sapiens, UniProt P10636); assay: [125I]SIL23 saturation binding, recombinant tau fibrils
# T3 construct: made in house; host or cells: BL21(DE3)RIL E. coli
# T3 sequence (P10636 560-692): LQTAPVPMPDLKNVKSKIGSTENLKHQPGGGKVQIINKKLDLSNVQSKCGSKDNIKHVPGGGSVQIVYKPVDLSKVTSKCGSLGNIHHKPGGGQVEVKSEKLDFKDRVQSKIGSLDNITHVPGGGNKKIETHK
# Protocol: Recombinant tau protein was produced in E. Coli.
# Filters containing the bound ligand were mixed with 150 μl of Optiphase Supermix scintillation cocktail (PerkinElmer) and counted immediately. All data points were performed in triplicate.
# Aβ1-42 fibrils [6] = target: T2, Aβ1-42 fibrils; assay: [125I]SIL23 saturation binding, synthetic Aβ1-42 fibrils
# Protocol: Synthetic Aβ1-42 peptide (1 mg) (Bachem, Torrance, Calif.) was first dissolved in 50 μl DMSO. An additional 925 μl of mQ-H2O was added. […] To determine the concentration of fibrils, the fibril reaction mix was centrifuged at 15,000×g for 15 min to separate fibrils from monomer. The concentration of Aβ monomer in the supernatant was determined in a BCA protein assay using a BSA standard curve that contained DMSO at a percentage equivalent to the samples.
# as §2
compound,measurement,setting,value
CNc1ccc(/C=C/c2ccc(OCCOCCOCCF)nc2)cc1 [AV-45],average Bmax / binding site density,Aβ plaques in AD brain; AV-45 binding in AD brain,8.8 pmol/mg protein
same,Kd,Aβ plaques in AD brain,3.7 nM
CN(C)c1ncc(/C=C/c2nc3ccc(OCCF)cc3o2)s1 [BF227],Ki,[1],138 nM
same,Ki,α-synuclein fibrils [2],39.7 nM
O=C(O)c1cc(/N=N/c2ccc(-c3ccc(/N=N/c4ccc(O)c(C(=O)O)c4)cc3)cc2)ccc1O [Chrysamine G],Ki,[1],367 nM
same,Ki,α-synuclein fibrils [2],432 nM
CNc1ccc(-c2nc3ccc(O)cc3s2)cc1 [PIB],average Bmax / binding site density,Aβ plaques in AD brain; PiB binding in AD brain,1407 pmol/g wet weight
same,Kd,Aβ plaques in AD brain,2.5 nM
same,Ki,[1],99.2 nM
same,Ki,α-synuclein fibrils [2],116 nM
"COc1ccc2c(c1)Sc1cc([N+](=O)[O-])ccc1N2 [SIL5, 3-methoxy-7-nitro-10H-phenothiazine]",Ki,Aβ1-42 fibrils [3],110 nM
"COc1ccc2c(c1)Sc1cc(C(F)(F)F)ccc1N2 [TZ5B-71, 3-methoxy-7-(trifluoromethyl)-10H-phenothiazine]",IC50,α-synuclein fibrils [4],742.7 ± 1.1 nM
same,Ki,α-synuclein fibrils [4],178 nM
"COc1ccc2c(c1)Sc1cnccc1N2 [TZ5B-79-1-1, 8-methoxy-5H-benzo[b]pyrido[4,3-e][1,4]thiazine]",IC50,α-synuclein fibrils [4],2231 ± 1.2 nM
same,Ki,α-synuclein fibrils [4],536 nM
"COc1ccc2c(c1)Sc1cccnc1N2 [TZ5B-95-1, 7-methoxy-10H-benzo[b]pyrido[2,3-e][1,4]thiazine]",IC50,α-synuclein fibrils [4],6624 ± 1.4 nM
same,Ki,α-synuclein fibrils [4],1590 nM
"COc1cccc2c1N(C(C)=O)c1ccc(C(F)(F)F)cc1S2 [TZ5B-145-2, 1-(1-methoxy-7-(trifluoromethyl)-10H-phenothiazin-10-yl)ethanone]",IC50,α-synuclein fibrils [4],1048 ± 1.9 nM
same,Ki,α-synuclein fibrils [4],252 nM
"COc1ccc2c(c1)Nc1ccc(C(F)(F)F)cc1S2 [TZ5B-159-1, 2-methoxy-7-(trifluoromethyl)-10H-phenothiazine]",IC50,α-synuclein fibrils [4],1082 ± 2.4 nM
same,Ki,α-synuclein fibrils [4],260 nM
"COc1ccc2c(c1)Nc1ccc([N+](=O)[O-])cc1S2 [TZ10-1-2-1, 2-methoxy-7-nitro-10H-phenothiazine]",IC50,α-synuclein fibrils [4],152 ± 1.1 nM
same,Ki,α-synuclein fibrils [4],36.5 nM
"COc1cccc2c1Nc1ccc([N+](=O)[O-])cc1S2 [TZ10-27-1, 1-methoxy-7-nitro-10H-phenothiazine]",IC50,α-synuclein fibrils [4],1426 ± 1.2 nM
same,Ki,α-synuclein fibrils [4],342 nM
"COc1ccc2c(c1)Nc1cc([N+](=O)[O-])ccc1N2 [TZ16-133-2, 2-methoxy-8-nitro-5,10-dihydrophenazine]",Ki,α-synuclein fibrils [4],> 1000 nM
"CC(=O)N1c2ccccc2N(C(C)=O)c2ccccc21 [TZ16-147-3, 1,1′-(phenazine-5,10-diyl)diethanone]",Ki,α-synuclein fibrils [4],> 1000 nM
"COc1ccc2c(c1)Oc1cc([N+](=O)[O-])ccc1N2 [TZ-2-33, 3-methoxy-7-nitro-10H-phenoxazine]",IC50,α-synuclein fibrils [4],106.9 ± 1 nM
same,Ki,α-synuclein fibrils [4],25.7 nM
"COc1ccc2c(c1)Nc1ccc([N+](=O)[O-])cc1O2 [TZ-2-39, 2-methoxy-7-nitro-10H-phenoxazine]",IC50,α-synuclein fibrils [4],39.6 ± 1.2 nM
same,Ki,α-synuclein fibrils [4],9.5 nM
"COc1ccc2c(c1)Oc1cc([N+](=O)[O-])cnc1N2 [TZ-2-48, 7-methoxy-3-nitro-10H-benzo[b]pyrido[2,3-e][1,4]-oxazine]",IC50,α-synuclein fibrils [4],111.8 ± 1.1 nM
same,Ki,α-synuclein fibrils [4],26.8 nM
"COc1ccc2c(c1)Nc1c(cccc1[N+](=O)[O-])O2 [TZ-2-52, 8-methoxy-1-nitro-10H-phenoxazine]",IC50,α-synuclein fibrils [4],500.9 ± 1.1 nM
same,Ki,α-synuclein fibrils [4],120 nM
"COc1ccc2c(c1)Oc1cccc([N+](=O)[O-])c1N2 [TZ-2-54, 7-methoxy-1-nitro-10H-phenoxazine]",IC50,α-synuclein fibrils [4],686.9 ± 1.2 nM
same,Ki,α-synuclein fibrils [4],165 nM
O=[N+]([O-])c1ccc2c(c1)Sc1cc(OCC[18F])ccc1N2 [[^18F]SIL26],Biodistribution,"[5]; blood, 5 min, male Sprague-Dawley rats",0.553 ± 0.047 I.D. %/gram
same,Biodistribution,"[5]; blood, 30 min, male Sprague-Dawley rats",0.589 ± 0.016 I.D. %/gram
same,Biodistribution,"[5]; blood, 60 min, male Sprague-Dawley rats",0.606 ± 0.035 I.D. %/gram
same,Biodistribution,"[5]; blood, 120 min, male Sprague-Dawley rats",0.585 ± 0.046 I.D. %/gram
same,defluorination,[5]; bone uptake from 5 to 60 min,no defluorination was observed
same,Biodistribution,"[5]; bone, 5 min, male Sprague-Dawley rats",0.340 ± 0.027 I.D. %/gram
same,Biodistribution,"[5]; bone, 30 min, male Sprague-Dawley rats",0.309 ± 0.020 I.D. %/gram
same,Biodistribution,"[5]; bone, 60 min, male Sprague-Dawley rats",0.407 ± 0.043 I.D. %/gram
same,Biodistribution,"[5]; bone, 120 min, male Sprague-Dawley rats",0.644±0.071 I.D. %/gram
same,brain uptake,[5]; 5 min post i.v. injection,0.758±0.013 % I.D./g
same,brain uptake,[5]; 30 min post i.v. injection,0.465±0.018 % I.D./g
same,brain uptake,[5]; 60 min post i.v. injection,0.410±0.030 % I.D./g
same,brain uptake,[5]; 120 min post i.v. injection,0.359±0.016 % I.D./g
same,Biodistribution,"[5]; fat, 5 min, male Sprague-Dawley rats",0.255 ± 0.037 I.D. %/gram
same,Biodistribution,"[5]; fat, 30 min, male Sprague-Dawley rats",0.425 ± 0.023 I.D. %/gram
same,Biodistribution,"[5]; fat, 60 min, male Sprague-Dawley rats",0.371 ± 0.067 I.D. %/gram
same,Biodistribution,"[5]; fat, 120 min, male Sprague-Dawley rats",0.293 ± 0.048 I.D. %/gram
same,Biodistribution,"[5]; heart, 5 min, male Sprague-Dawley rats",0.757 ± 0.033 I.D. %/gram
same,Biodistribution,"[5]; heart, 30 min, male Sprague-Dawley rats",0.505 ± 0.015 I.D. %/gram
same,Biodistribution,"[5]; heart, 60 min, male Sprague-Dawley rats",0.466 ± 0.040 I.D. %/gram
same,Biodistribution,"[5]; heart, 120 min, male Sprague-Dawley rats",0.410 ± 0.030 I.D. %/gram
same,Biodistribution,"[5]; kidney, 5 min, male Sprague-Dawley rats",1.070 ± 0.058 I.D. %/gram
same,Biodistribution,"[5]; kidney, 30 min, male Sprague-Dawley rats",0.988 ± 0.090 I.D. %/gram
same,Biodistribution,"[5]; kidney, 60 min, male Sprague-Dawley rats",0.678 ± 0.032 I.D. %/gram
same,Biodistribution,"[5]; kidney, 120 min, male Sprague-Dawley rats",0.659 ± 0.027 I.D. %/gram
same,Biodistribution,"[5]; liver, 5 min, male Sprague-Dawley rats",1.626±0.221 I.D. %/gram
same,Biodistribution,"[5]; liver, 30 min, male Sprague-Dawley rats",0.847 ± 0.027 I.D. %/gram
same,Biodistribution,"[5]; liver, 60 min, male Sprague-Dawley rats",0.561 ± 0.028 I.D. %/gram
same,Biodistribution,"[5]; liver, 120 min, male Sprague-Dawley rats",0.467 ± 0.023 I.D. %/gram
same,Biodistribution,"[5]; lung, 5 min, male Sprague-Dawley rats",0.833 ± 0.053 I.D. %/gram
same,Biodistribution,"[5]; lung, 30 min, male Sprague-Dawley rats",0.561 ± 0.021 I.D. %/gram
same,Biodistribution,"[5]; lung, 60 min, male Sprague-Dawley rats",0.491 ± 0.030 I.D. %/gram
same,Biodistribution,"[5]; lung, 120 min, male Sprague-Dawley rats",0.436 ± 0.018 I.D. %/gram
same,ability to cross the blood-brain-barrier (BBB),"[5]; male Sprague-Dawley rats, i.v.",able to cross BBB
same,Biodistribution,"[5]; muscle, 5 min, male Sprague-Dawley rats",0.430 ± 0.031 I.D. %/gram
same,Biodistribution,"[5]; muscle, 30 min, male Sprague-Dawley rats",0.451 ± 0.018 I.D. %/gram
same,Biodistribution,"[5]; muscle, 60 min, male Sprague-Dawley rats",0.376 ± 0.019 I.D. %/gram
same,Biodistribution,"[5]; muscle, 120 min, male Sprague-Dawley rats",0.315 ± 0.015 I.D. %/gram
same,Biodistribution,"[5]; pancreas, 5 min, male Sprague-Dawley rats",1.004 ± 0.147 I.D. %/gram
same,Biodistribution,"[5]; pancreas, 30 min, male Sprague-Dawley rats",0.546 ± 0.068 I.D. %/gram
same,Biodistribution,"[5]; pancreas, 60 min, male Sprague-Dawley rats",0.409 ± 0.029 I.D. %/gram
same,Biodistribution,"[5]; pancreas, 120 min, male Sprague-Dawley rats",0.330 ± 0.021 I.D. %/gram
same,Biodistribution,"[5]; spleen, 5 min, male Sprague-Dawley rats",0.672 ± 0.064 I.D. %/gram
same,Biodistribution,"[5]; spleen, 30 min, male Sprague-Dawley rats",0.509 ± 0.022 I.D. %/gram
same,Biodistribution,"[5]; spleen, 60 min, male Sprague-Dawley rats",0.446 ± 0.038 I.D. %/gram
same,Biodistribution,"[5]; spleen, 120 min, male Sprague-Dawley rats",0.398 ± 0.019 I.D. %/gram
O=[N+]([O-])c1ccc2c(c1)Sc1cc(OC/C=C/[125I])ccc1N2 [[^125I]SIL23],Bmax,tau fibrils; tau fibrils,4.57 pmol/nmol
same,Kd,tau fibrils; tau fibrils,230 nM
same,affinity lower than α-synuclein fibrils,tau fibrils; tau fibrils versus α-synuclein fibrils,approximately 2 fold
same,Bmax,Aβ1-42 fibrils [6]; Aβ1-42 fibrils,23.7 pmol/nmol
same,Kd,Aβ1-42 fibrils [6]; Aβ1-42 fibrils,635 nM
same,affinity lower than that observed for α-synuclein fibrils,Aβ1-42 fibrils [6]; Aβ1-42 fibrils versus α-synuclein fibrils,5 fold
